# Measured values reported in patent publication US11358949B2, “Carbamate and urea compounds as multikinase inhibitors” (ANGEX PHARMACEUTICAL, INC., priority 2017, dated 2022).
# Tests used:
# BLK = BLK (Homo sapiens, UniProt P51451); test: HotSpot Kinase Assay, BLK
# Protocol: (§1) Specifically, for each reaction, kinase and substrate were mixed in a pH 7.5 buffer containing 20 mM HEPES, 10 mM MgCl2, 1 mM EGTA [Ethylene glycol-bis(2-aminoethylether)-N,N,N′,N′-tetraacetic acid], 0.02% Brij35, 0.02 mg/mL BSA (Bovine Serum Albumin), 0.1 mM Na3VO4, 2 mM DTT, and 1% DMSO. Compounds were then added to each reaction mixture. After a 20-min incubation, ATP (Sigma-Aldrich) and [γ-^33P] ATP (PerkinElmer) were added at a final total concentration of 100 μM. Reactions were carried out at room temperature for 2 hours and spotted onto P81 ion exchange cellulose chromatography paper (Whatman). […] The percent remaining kinase activity relative to a vehicle-containing (DMSO) kinase reaction was calculated for each kinase/inhibitor pair. […] IC50 values were calculated using Prism 5 (GraphPad).
# MEK1 = MEK1 (Homo sapiens, UniProt Q02750); test: HotSpot Kinase Assay, MEK1
# Protocol: as §1
# MEK5 = MEK5 (Homo sapiens, UniProt Q13163); test: HotSpot Kinase Assay, MEK5
# Protocol: as §1
# c-MER = biological target: T1, c-MER (Homo sapiens, UniProt Q12866); test: HotSpot Kinase Assay, c-MER
# T1 sequence (Q12866 21-999): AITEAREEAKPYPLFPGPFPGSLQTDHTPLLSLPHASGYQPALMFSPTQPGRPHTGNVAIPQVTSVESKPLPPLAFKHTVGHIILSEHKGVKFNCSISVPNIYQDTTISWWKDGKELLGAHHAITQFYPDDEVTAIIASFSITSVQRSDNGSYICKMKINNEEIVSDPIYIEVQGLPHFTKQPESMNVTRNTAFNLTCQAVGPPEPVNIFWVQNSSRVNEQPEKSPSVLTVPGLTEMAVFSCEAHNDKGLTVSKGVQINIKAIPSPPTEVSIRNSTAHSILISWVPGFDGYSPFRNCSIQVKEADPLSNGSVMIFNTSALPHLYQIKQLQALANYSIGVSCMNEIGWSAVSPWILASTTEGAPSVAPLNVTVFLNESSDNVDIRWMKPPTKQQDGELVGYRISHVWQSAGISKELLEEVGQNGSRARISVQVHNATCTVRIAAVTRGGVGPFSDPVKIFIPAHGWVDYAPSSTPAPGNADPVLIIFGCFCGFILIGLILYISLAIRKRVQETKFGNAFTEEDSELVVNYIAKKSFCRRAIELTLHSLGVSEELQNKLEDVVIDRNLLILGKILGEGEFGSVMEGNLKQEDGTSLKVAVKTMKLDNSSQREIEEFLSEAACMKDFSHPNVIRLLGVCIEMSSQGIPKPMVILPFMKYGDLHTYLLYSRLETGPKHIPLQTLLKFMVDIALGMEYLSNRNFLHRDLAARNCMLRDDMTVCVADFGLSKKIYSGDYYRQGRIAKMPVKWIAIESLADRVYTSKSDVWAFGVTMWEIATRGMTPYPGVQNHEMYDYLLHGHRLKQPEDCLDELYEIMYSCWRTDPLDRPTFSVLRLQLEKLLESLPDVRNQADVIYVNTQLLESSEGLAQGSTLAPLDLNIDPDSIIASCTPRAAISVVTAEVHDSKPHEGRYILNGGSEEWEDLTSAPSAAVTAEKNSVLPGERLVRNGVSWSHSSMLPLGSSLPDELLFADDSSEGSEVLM
# c-MET = c-MET (Homo sapiens, UniProt P08581); test: HotSpot Kinase Assay, c-MET
# Protocol: as §1
# EPHA3 = EPHA3 (Homo sapiens, UniProt P29320); test: HotSpot Kinase Assay, EPHA3
# Protocol: as §1
# PDGFβ = PDGFβ (Homo sapiens, UniProt P09619); test: HotSpot Kinase Assay, PDGFβ
# Protocol: as §1
# TIE2/TEK = TIE2/TEK (Homo sapiens, UniProt Q02763); test: HotSpot Kinase Assay, TIE2/TEK
# Protocol: as §1
# LOK/STK10 = LOK/STK10 (Homo sapiens, UniProt O94804); test: HotSpot Kinase Assay, LOK/STK10
# Protocol: as §1
# TYRO3/SKY = biological target: T2, TYRO3/SKY (Homo sapiens, UniProt Q06418); test: HotSpot Kinase Assay, TYRO3/SKY
# T2 sequence (Q06418 41-890): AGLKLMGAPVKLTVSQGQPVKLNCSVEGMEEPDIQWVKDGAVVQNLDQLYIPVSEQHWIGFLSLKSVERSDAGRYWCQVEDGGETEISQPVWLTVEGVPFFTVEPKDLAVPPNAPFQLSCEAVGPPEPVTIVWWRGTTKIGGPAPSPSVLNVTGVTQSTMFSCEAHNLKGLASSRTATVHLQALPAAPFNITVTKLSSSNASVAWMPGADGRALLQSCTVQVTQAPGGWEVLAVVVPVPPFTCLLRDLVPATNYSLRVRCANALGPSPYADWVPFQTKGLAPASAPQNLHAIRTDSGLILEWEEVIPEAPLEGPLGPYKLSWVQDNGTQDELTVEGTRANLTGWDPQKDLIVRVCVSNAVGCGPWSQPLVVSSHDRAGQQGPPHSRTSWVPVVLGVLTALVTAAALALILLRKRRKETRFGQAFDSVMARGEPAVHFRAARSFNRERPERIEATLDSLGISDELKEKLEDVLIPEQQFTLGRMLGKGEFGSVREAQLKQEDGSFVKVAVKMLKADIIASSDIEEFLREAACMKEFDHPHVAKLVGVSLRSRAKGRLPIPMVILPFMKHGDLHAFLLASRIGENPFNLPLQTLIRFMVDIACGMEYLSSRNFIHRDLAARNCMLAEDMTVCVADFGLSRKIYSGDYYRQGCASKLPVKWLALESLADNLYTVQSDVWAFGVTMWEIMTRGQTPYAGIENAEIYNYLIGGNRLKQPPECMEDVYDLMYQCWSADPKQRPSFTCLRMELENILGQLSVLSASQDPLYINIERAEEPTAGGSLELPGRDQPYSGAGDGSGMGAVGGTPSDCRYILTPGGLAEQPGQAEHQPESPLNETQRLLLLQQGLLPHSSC
# Protocol: as §1
# CDK7/cyclin H = CDK7/cyclin H (Homo sapiens, UniProt P50613); test: HotSpot Kinase Assay, CDK7/cyclin H
# Chain of CDK7/cyclin H (P50613 whole entry): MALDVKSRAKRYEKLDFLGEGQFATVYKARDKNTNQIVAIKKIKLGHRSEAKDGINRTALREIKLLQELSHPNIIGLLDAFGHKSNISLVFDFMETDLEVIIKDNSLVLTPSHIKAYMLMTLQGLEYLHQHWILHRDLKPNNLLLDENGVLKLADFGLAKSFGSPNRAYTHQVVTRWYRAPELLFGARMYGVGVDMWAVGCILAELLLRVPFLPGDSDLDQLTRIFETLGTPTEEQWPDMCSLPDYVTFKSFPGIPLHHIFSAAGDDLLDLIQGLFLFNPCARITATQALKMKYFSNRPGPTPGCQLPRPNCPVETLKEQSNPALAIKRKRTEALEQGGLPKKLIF
# Chain of CDK7/cyclin H (P51946 whole entry partner): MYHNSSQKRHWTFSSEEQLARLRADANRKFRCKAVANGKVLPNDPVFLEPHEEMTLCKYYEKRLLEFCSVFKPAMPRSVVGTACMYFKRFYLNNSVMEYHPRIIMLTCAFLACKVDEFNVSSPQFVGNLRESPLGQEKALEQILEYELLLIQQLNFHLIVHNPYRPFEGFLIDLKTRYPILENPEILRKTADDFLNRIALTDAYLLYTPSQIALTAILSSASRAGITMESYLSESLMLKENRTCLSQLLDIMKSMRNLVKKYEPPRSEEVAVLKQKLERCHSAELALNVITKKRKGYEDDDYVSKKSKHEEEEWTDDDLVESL
# Chain of CDK7/cyclin H (P51948 whole entry partner): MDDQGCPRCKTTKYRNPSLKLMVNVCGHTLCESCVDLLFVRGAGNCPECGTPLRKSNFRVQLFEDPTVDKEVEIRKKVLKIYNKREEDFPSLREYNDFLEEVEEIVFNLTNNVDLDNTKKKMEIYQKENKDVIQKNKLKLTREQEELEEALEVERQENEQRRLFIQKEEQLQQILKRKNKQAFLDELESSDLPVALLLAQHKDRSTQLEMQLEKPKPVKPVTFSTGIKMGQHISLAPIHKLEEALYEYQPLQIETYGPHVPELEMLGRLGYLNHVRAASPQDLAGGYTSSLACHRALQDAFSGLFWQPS
# Protocol: as §1
# Chain of BLK (P51451 whole entry): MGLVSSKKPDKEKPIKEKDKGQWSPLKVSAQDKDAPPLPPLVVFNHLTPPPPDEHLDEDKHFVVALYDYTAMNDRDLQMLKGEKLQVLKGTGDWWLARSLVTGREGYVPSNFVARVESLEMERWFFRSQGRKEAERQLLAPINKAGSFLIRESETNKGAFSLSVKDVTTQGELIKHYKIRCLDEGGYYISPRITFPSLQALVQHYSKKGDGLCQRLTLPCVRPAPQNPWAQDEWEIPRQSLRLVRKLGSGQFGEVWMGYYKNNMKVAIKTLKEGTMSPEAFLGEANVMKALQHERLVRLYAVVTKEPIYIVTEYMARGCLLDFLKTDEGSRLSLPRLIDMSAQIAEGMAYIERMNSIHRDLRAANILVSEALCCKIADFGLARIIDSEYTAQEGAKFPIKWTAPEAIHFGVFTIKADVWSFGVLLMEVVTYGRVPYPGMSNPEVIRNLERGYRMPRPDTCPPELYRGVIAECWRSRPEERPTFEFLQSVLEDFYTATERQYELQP
# Chain of MEK5 (Q13163 whole entry): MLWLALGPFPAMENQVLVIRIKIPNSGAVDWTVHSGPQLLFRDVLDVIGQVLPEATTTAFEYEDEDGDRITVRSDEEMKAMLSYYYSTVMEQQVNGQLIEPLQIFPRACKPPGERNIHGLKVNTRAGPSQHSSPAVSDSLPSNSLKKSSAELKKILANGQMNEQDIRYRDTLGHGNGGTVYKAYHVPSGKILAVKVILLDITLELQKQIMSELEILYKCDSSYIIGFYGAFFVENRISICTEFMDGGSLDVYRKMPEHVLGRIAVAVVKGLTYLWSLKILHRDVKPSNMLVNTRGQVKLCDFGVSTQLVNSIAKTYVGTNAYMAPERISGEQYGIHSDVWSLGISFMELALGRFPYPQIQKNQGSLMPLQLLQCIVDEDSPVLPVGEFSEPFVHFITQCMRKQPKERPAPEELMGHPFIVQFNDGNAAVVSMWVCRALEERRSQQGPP
# Chain of TIE2/TEK (Q02763 23-1124): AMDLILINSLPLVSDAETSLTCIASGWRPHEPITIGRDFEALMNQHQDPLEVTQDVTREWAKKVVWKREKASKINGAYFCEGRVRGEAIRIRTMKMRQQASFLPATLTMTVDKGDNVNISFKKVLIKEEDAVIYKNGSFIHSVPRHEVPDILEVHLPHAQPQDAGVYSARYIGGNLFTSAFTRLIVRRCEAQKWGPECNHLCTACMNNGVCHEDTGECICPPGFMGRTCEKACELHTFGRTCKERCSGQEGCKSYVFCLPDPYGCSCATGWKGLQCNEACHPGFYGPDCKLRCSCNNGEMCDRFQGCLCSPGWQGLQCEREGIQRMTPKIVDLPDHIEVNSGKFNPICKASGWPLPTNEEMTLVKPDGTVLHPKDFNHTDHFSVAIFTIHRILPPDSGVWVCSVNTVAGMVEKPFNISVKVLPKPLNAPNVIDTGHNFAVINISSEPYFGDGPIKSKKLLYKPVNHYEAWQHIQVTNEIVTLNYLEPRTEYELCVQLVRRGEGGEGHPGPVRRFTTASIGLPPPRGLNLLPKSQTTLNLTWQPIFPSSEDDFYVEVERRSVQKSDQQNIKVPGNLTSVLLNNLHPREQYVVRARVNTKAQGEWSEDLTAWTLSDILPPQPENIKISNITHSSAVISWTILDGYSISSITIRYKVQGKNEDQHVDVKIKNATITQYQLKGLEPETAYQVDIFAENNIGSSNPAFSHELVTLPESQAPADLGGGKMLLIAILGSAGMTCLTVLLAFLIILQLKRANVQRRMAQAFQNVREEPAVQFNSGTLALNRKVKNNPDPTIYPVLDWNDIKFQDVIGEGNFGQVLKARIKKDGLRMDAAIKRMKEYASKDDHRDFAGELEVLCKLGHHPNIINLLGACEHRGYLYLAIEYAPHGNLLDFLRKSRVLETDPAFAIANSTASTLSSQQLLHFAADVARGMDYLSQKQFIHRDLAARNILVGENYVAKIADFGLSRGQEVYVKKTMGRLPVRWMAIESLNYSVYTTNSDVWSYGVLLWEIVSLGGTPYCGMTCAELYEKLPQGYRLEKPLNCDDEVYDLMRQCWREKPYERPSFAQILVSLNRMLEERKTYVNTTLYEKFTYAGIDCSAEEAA
# Chain of EPHA3 (P29320 21-983): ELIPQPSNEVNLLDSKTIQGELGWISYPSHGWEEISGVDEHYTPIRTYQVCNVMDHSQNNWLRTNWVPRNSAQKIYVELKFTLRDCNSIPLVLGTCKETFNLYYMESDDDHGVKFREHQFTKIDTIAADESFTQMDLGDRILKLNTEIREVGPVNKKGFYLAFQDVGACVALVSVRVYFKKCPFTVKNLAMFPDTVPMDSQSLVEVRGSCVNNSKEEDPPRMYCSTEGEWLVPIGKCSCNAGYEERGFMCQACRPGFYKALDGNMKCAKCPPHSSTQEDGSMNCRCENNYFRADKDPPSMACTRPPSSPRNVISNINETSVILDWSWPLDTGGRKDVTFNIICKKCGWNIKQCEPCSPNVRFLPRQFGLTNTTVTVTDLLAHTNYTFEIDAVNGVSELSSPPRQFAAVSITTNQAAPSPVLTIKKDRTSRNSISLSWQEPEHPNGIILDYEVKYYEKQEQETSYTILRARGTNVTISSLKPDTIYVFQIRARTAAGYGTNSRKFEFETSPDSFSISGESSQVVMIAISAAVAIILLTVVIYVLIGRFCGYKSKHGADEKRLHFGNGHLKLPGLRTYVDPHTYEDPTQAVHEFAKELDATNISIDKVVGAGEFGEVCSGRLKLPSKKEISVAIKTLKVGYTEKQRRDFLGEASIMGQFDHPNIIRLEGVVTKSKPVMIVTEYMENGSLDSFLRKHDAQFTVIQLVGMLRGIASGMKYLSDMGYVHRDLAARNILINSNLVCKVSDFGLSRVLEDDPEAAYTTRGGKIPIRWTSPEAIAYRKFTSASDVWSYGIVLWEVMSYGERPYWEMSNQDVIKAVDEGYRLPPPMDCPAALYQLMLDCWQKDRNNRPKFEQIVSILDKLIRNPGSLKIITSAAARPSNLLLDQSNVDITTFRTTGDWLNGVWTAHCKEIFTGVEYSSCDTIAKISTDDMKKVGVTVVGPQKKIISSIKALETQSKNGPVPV
# Chain of MEK1 (Q02750 whole entry): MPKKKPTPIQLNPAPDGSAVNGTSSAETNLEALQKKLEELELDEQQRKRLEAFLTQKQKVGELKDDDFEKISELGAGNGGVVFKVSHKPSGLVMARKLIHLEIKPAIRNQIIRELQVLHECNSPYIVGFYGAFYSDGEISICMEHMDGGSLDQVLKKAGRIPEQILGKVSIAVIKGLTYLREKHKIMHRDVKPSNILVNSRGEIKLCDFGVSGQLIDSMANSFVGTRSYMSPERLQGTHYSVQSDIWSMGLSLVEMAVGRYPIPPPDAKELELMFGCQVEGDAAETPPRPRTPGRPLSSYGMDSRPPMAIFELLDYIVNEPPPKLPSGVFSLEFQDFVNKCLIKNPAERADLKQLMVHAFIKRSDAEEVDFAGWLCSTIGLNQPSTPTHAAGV
smiles,measurement,setting,value
COc1cc2c(Oc3ccc(NC(=O)C4(C(=O)Nc5ccc(F)cc5)CC4)cc3)ccnc2cc1OC(=O)N1CCN(C)CC1 [Compound 1-10],IC50,BLK,> 1000 nM
same,IC50,MEK1,> 1000 nM
same,IC50,MEK5,> 1000 nM
same,IC50,c-MER,< 100 nM
same,IC50,c-MET,< 100 nM
same,IC50,EPHA3,100 to 1000 nM
same,IC50,PDGFβ,100 to 1000 nM
same,IC50,TIE2/TEK,> 1000 nM
same,IC50,LOK/STK10,100 to 1000 nM
same,IC50,TYRO3/SKY,100 to 1000 nM
same,IC50,CDK7/cyclin H,> 1000 nM
